In US9539259B2, “Compounds and methods of use thereof for treating neurodegenerative disorders” (THE JOHNS HOPKINS UNIVERSITY, priority 2012, dated 2017):
Like-named read-outs stand apart in the source and are kept apart here.

Tests used:
primary RGCs = test: Survival of immunopanned primary RGCs in culture; conditions: for RGC survival / neuroprotective activity in culture: immunopanned RGCs, increasing doses, 72 hours in culture; for neuroprotective activity, RGC survival by CellTiter-Glo luminescence: murine purified RGCs, neurotrophin-depleted media, 72 hours, sunitinib as positive control
Experimental: All animal use was in accordance with ARVO Statement for the Use of Animals, and all the experimental procedures were performed in compliance with animal protocols approved by the IACUC at Johns Hopkins University. Retinas were isolated from postnatal 0-5 day mice and dissociated with papain. Microglia was immunodepleted with anti-CD11b conjugated Dynabeads. The suspension of retinal cells were immunopanned on plates pre-conjugated with anti-Thy1.2 antibody (Serotec, Raleigh, N.C.; MCA028) and goat anti-mouse IgM (Jackson Immunoresearch) at room temperature (RT). After washing, RGCs were released from the plate by a cell lifter, counted, and seeded at a density of 10,000 per well in 96-well plates in the media composed of Neurobasal, B27, N2 supplement, L-glutamine, and penicillin/streptomycin. After a 72 hour culture at 37° C., RGCs were stained with calcein AM, ethidium homodimer, and Hoechst 33342. Images were taken from portions of each well with Cellomics Kinetscan or Cellomics ArrayScan VTI HCS Readers (Thermo Fisher), and cell survival was quantified and calculated with the algorithms in Cellomics Neuroprofiling package. As indicated, RGC viability was alternatively measured by CellTiter-Glo luminescence (Promega, Fitchburg, Wis.).
For siRNA-based screening, the siRNAs from the Sigma Mission Mouse Kinome library were complexed with NeuroMag (Oz Biosciences, Marseille, France) at a final concentration of 20 nM. RGCs were then reverse transfected on a stationary magnet and assayed for survival 72 hours later using CellTiter-Glo (Promega). […] Confirmatory siRNAs were obtained from both Dharmacon (Lafayette, Colo.) and Ambion (Carlsbad, Calif.). Adenovirus expressing wildtype or kinase-dead DLK (Robitaille et al., 2004) was added to RGCs at a multiplicity of infection of 100-1000. For small molecule-based screening, serially diluted compounds in DMSO were transferred to 1536 well assay plates by a 23 nL pintool array (Kalypsys, San Diego, Calif.), with a final concentration of 0.057% DMSO for each respective compound concentration. RGCs were cultured for 48 h, and cell viability was analyzed on a plate reader (ViewLux, Perkin Elmer, Waltham, Mass.) using the bioluminescent CellTiterGlo (Promega, Fitchburg, Wis.) assay. Concentration response curves were created using CurveFit (NIH NCATS). The screened libraries include the modified Tocriscreen (1395 compounds) collection, FDA-approved drugs (2814 compounds), LOPAC (1208 compounds) and PTL2/PTL3 (based on pteridin, pyrimidine and quinazoline scaffolds; 2319 compounds).
In order to identify novel neuroprotective agents, a high-content, high-throughput, phenotypic screen was developed using primary RGCs. RGCs were immunopanned from perinatal mice using an antibody against the RGC surface antigen Thy1 (Barres et al., 1988), arrayed into microtiter (96- to 1536-well) plates, and cell survival in the presence of various bioactive small molecules was assayed 72 hours later.

[1] = system: DLK signaling (phosphorylation of MKK7 and JNK); test: Western blot of DLK pathway members in RGCs; type: cell-based, mouse; conditions: RGCs 4 hours after immunopanning, concentrations that increase RGC survival
Experimental: (§1) The shaded area indicates the toxic range for tozasertib; (B) Western blot of the DLK pathway members in RGCs 4 hours after immunopanning in the presence of 0, 0.03, 0.06, 0.125, 0.25, 0.5, 1 or 2 μM tozasertib; (C) survival of cultured RGCs 72 hours after transfection with DLK (dashed) or nontargeting siRNA (solid) in the presence of increasing doses of tozasertib; and (D) survival of cultured RGCs 48 hours after transduction with DLK expressing adenovirus in the presence of increasing doses of tozasertib. Error bars show standard deviation; and
Western blots were performed according to the standard protocol. The following antibodies were from Cell Signaling Technology (Beverly, Mass.): Phospho-JNK, Thr183/Tyr185 (4671); JNK (9258); Phospho-MKK7 (4171), and MKK7 (4172). Monoclonal anti-alpha-tubulin antibody (T6074) was purchased from Sigma (St. Louis, Mo.), βIII tubulin (TUJ1) from Covance, goat polyclonal Brn3 from C-13, and rabbit anti-Cre from Novus. DLK rabbit polyclonal was provided by S. Hirai.

RGCs overexpressing DLK = test: Survival of RGCs transduced with DLK-expressing adenovirus in the presence of inhibitor; type: cell-based, mouse
Experimental: as §1
(§2) Concentration response curves were created using CurveFit (NIH NCATS).

[2] = system: DLK siRNA-transfected RGCs; test: Survival of RGCs transfected with DLK or control siRNA in the presence of inhibitor; type: cell-based, mouse; conditions: 72 hours after transfection, increasing doses
Experimental: as §1, §2

MKK4/7 = conditions: published kinase inhibitor profiling; cited from earlier work
optic nerve axons = test: Rat laser-induced ocular hypertension (glaucoma model), optic nerve axon counts; conditions: for reduction of optic nerve axon loss: intravitreal drug-eluting PLGA microspheres, pretreatment, at one month
Experimental: 6-week old male Wistar rats were anesthetized with ketamine/xylazine. A partial periotomy was made to expose the sclera. The injection site was approximately 1 mm posterior to the ora serrata, and the injection glass pipet was angled towards the optic disc in order to avoid lens injury. 5 μL (10 μg) of PLGA microspheres were injected with a glass pipet and Hamilton syringe.
Intraocular pressure (TOP) was unilaterally elevated by laser treatment of the trabecular meshwork as previously described (Levkovitch-Verbin, H. et al., 2002). Briefly, 6-week old Wistar male rats were anesthetized with ketamine/xylazine. On two consecutive weeks, 40-50 532 nm diode laser spots were applied to the prelimbal region (50 μm diameter, 600 mW power and 0.6 seconds duration). Under anesthesia, the IOP of laser-treated and fellow eyes was measured with TonoLab one and three days after laser treatment. Four weeks following laser treatment, rats were perfused with 4% paraformaldehyde in phosphate buffer. Optic nerves were isolated, postfixed with 1% osmium tetroxide, embedded in epoxy resin and stained with 1% toluidine blue. Images from 10 random and nonoverlapping fields were taken with 100× oil phase contrast objective. The area of entire optic nerve cross-sections were imaged with 10× magnification, and used with axon counts from the 10 field to derive axon counts per nerve. The laser treatment and acquisition of optic nerve images were performed in a masked fashion.
Sunitinib, or its vehicle control, were packaged in poly(lactic-co-glycolic acid) (PLGA)-based, slow-eluting microspheres (Edwards, 1997) and injected intravitreally into Wistar rats.

DLK = target: T1, DLK (Homo sapiens, UniProt Q12852); conditions: published kinase inhibitor profiles; cited from earlier work
T1 sequence (Q12852 1-859): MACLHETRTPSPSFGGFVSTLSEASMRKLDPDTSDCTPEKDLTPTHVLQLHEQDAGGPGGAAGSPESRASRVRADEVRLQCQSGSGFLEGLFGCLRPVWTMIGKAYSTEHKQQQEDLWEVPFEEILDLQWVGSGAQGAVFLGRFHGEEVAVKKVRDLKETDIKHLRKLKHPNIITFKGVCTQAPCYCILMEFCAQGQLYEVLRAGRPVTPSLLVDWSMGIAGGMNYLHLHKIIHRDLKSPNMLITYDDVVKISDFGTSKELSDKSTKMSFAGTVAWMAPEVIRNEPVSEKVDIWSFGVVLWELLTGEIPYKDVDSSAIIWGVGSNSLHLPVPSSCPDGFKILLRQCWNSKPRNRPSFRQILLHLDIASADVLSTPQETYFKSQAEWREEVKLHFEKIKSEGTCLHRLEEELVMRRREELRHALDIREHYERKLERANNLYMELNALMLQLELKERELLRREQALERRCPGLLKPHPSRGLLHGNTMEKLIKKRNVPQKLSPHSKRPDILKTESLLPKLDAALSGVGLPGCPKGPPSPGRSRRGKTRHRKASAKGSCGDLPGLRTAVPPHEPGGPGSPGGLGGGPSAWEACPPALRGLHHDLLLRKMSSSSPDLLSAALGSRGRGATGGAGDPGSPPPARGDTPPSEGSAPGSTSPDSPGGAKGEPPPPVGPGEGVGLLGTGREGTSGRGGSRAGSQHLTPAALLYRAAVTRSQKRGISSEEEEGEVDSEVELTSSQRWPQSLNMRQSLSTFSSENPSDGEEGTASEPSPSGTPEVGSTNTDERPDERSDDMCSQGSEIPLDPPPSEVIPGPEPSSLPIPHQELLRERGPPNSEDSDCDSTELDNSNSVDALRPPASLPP

JNK1/2/3 = conditions: published kinase inhibitor profiling; cited from earlier work
RGCs = test: Rat optic nerve transection, RGC survival; type: in vivo, Wistar rats

SMILES | RGC survival / neuroprotective activity in culture (primary RGCs) | binding to DLK (DLK) | neuroprotective activity, RGC survival by CellTiter-Glo luminescence (primary RGCs) | other results
CNC(=O)c1cc(Oc2ccc(NC(=O)Nc3ccc(Cl)c(C(F)(F)F)c3)cc2)ccn1 [sorafenib] | lack neuroprotective activity |  |  | 
Cc1cc(Nc2cc(N3CCN(C)CC3)nc(Sc3ccc(NC(=O)C4CC4)cc3)n2)[nH]n1 [tozasertib] | promoted the survival of primary RGCs in culture | reported to bind DLK |  | phosphorylation of targets downstream of DLK, including MKK7 and JNK [1]: decrease in the phosphorylation of targets downstream of DLK; effect on toxicity / survival with adenoviral-overexpressed DLK (RGCs overexpressing DLK): right-shift of the tozasertib-survival dose-response curve; effect on survival of DLK siRNA-transfected RGCs [2]: left-shift of the tozasertib-survival dose-response curve; affinity for MKK4/7 (MKK4/7): does not have significant affinity; neuroprotection in glaucoma model (optic nerve axons; intravitreal PLGA microspheres / slow release formulation): protected RGCs; reduction of optic nerve axon loss (optic nerve axons): 39%; affinity for JNK (JNK1/2/3): does not have significant affinity; surviving RGCs (RGCs; intravitreal PLGA microspheres 7 days before transection, two weeks after transection, vehicle 12.0%): 32.3%; protection of RGCs in optic nerve transection model (RGCs; intravitreal slow release formulation): protected RGCs; RGC survival / neuroprotective activity in culture (primary RGCs; listed as Tozasertib): significant neuroprotective activity
O=C(c1ccc(/C=C/c2n[nH]c3ccccc23)cc1)N1CCNCC1 [KW-2449] | promoted the survival of primary RGCs in culture | reported to bind DLK | neuroprotective activity | 
COc1cc(Nc2c(C#N)cnc3cc(OCCCN4CCN(C)CC4)c(OC)cc23)c(Cl)cc1Cl [bosutinib] | promoted the survival of primary RGCs in culture | reported to bind DLK | neuroprotective activity | 
C[C@]12O[C@H](C[C@]1(O)CO)n1c3ccccc3c3c4c(c5c6ccccc6n2c5c31)CNC4=O [lestautinib, lestaurtinib] | promoted the survival of primary RGCs in culture |  |  | 
CNC(=O)c1ccccc1Sc1ccc2c(/C=C/c3ccccn3)n[nH]c2c1 [axitinib] | promoted the survival of primary RGCs in culture | reported to bind DLK | neuroprotective activity | 
Clc1ccc(Nc2nnc(Cc3ccncc3)c3ccccc23)cc1 [vatalanib] | lack neuroprotective activity |  |  | 
COc1cc(N2CCC(N3CCN(C)CC3)CC2)ccc1Nc1ncc(Cl)c(Nc2ccccc2S(=O)(=O)C(C)C)n1 [TAE-684] |  | reported to bind DLK |  | toxicity in RGC culture (primary RGCs): limited by toxicity at nanomolar doses
COc1cc2nccc(Oc3ccc(NC(=O)C4(C(=O)Nc5ccc(F)cc5)CC4)cc3)c2cc1OC [cabozantinib] |  |  | neuroprotective activity | 
Cc1ccc(NC(=O)c2ccc(CN3CCN(C)CC3)cc2)cc1Nc1nccc(-c2cccnc2)n1 [imatinib] | lack neuroprotective activity |  |  | 
COc1cc2c(Oc3ccc(NC(=O)C4(C(=O)Nc5ccc(F)cc5)CC4)cc3F)ccnc2cc1OCCCN1CCOCC1 [foretinib] | promoted the survival of primary RGCs in culture | reported to bind DLK | neuroprotective activity | 
C[C@@H](Oc1cc(-c2cnn(C3CCNCC3)c2)cnc1N)c1c(Cl)ccc(F)c1Cl [crizotinib] | promoted the survival of primary RGCs in culture | reported to bind DLK | neuroprotective activity | 
Cc1nc(Nc2ncc(C(=O)Nc3c(C)cccc3Cl)s2)cc(N2CCN(CCO)CC2)n1 [dasatinib] |  |  | neuroprotective activity | 
CCN(CC)CCNC(=O)c1c(C)[nH]c(/C=C2\C(=O)Nc3ccc(F)cc32)c1C [sunitinib] |  |  |  | reduction of optic nerve axon loss (optic nerve axons): 40%; increase in surviving RGCs compared to control animals (RGCs; intravitreal PLGA microspheres 7 days before transection, two weeks post-transection): 3-4 fold; toxicity in RGC culture (primary RGCs; primary RGCs in culture): cytotoxicity at high concentrations
CN(C)S(=O)(=O)c1ccc2c(c1)/C(=C/c1cc3c([nH]1)CCCC3)C(=O)N2 [SU6656] | neuroprotective |  |  | 
CCOc1cc2ncc(C#N)c(Nc3ccc(OCc4ccccn4)c(Cl)c3)c2cc1NC(=O)/C=C/CN(C)C [neratinib] |  | reported to bind DLK |  | toxicity in RGC culture (primary RGCs): limited by toxicity at nanomolar doses
